Where a SMILES comes first, the peptide text is derived from it. [ ]: non-standard residue; d: D form. The star is where a group is joined. Phe(4-N(CH2CH2Cl)2) = N[C@@H](Cc1ccc(N(CCCl)CCCl)cc1)C(=O)O; Chlorambucil = O=C(CCCc1ccc(N(CCCl)CCCl)cc1)*; X1 = Cn1c(CCCC(=O)*)nc2cc(N(CCCl)CCCl)ccc21 Bounds are passed on as bounds.

The subject of one data set is A20 cells. As to the kind of experiment: Cell cytotoxicity assay (XTT). Type of data set: cell-based, murine. The settings on record: 72 h, free drug 0-50 µM; for IC50: Mus musculus. The procedure:
To measure drug cytotoxic effect, cells were seeded into 96-wells Nunclon culture plates at 2.5 × 10^3 cells per well and grown overnight at 37 °C. The spent medium was removed and the cells cultured for 72 h in fresh medium containing either free drug, PDCs, PEG-AuNPs or PDC-PEG-AuNPs at concentrations ranging from 0 to 50 µM (drug) filtered through a 0.22 µm syringe. Cellular metabolic status, used as a measure of cell viability, was then determined by replacing the culture medium with fresh medium containing XTT reagent (50 µl/well) and the cells were re-cultured for 2 h sat 37 °C. Absorbance in the wells was measured at 450 nm and subtracted from the reference absorbance at 630 nm. Culture medium was used as background control. All experiments were performed in triplicate on three separate occasions. Data are presented as mean ± S.D.
For orientation: Formazan colour is commonly taken as a measure of viable cells.

A short description of data set [1]: Biostability in liver homogenate. The settings on record: pH 7.4; free PDC; 100 µl sample in 1 ml mouse liver homogenate (6 mg total protein), 37 °C, LC-MS, exponential decay fit; read-out: Biostability (liver homogenate) t½. Type of data set: in vitro ADME. The protocol:
Mice were sacrificed by CO2 euthanasia. Livers were removed, and rinsed in cold 0.01 M PBS buffer pH 7.4. They were transferred to 10 ml Tris-HCI, pH 7.4 and homogenized in a Potter–Elvehjem glass tissue grinder for 4 min. The tissue homogenate was centrifuged for 20 min at 4 °C, 14,000 rpm, and the supernatant was collected. Protein concentration was measured using the BCA protein assay using bovine serum albumin as a standard. The homogenate was used immediately or else stored in liquid nitrogen.
100 μl of each sample was added to 1 ml of liver homogenate (equivalent to 6 mg total protein). The samples were incubated at 37 °C and aliquots were taken during the different incubation period at different time intervals. The collected aliquots were immediately filtered, and analyzed by LC–MS.
(§1) The chemo-stability of the P4-PDCs was tested at a physiological pH of 7.4, while the solutions were incubated at 37 °C. Biostability was assessed after incubation in a mouse liver homogenate. In each case aliquots were taken at selected times and analyzed by LC–MS. PDC integrity was determined by calculating the area under the curve of the PDC peak. The R^2 values of the exponential decay curves ranged from 0.97 to 0.99 for the three PDCs; the functions of these curves were used to calculate the t½ values. […] In liver homogenate (Fig. 5c), stability decayed more rapidly with half-lives ranging from 10.6 to 15.4 min. There was no significant difference in behavior between the three PDCs and no free drug was observed.

Data set [2] can be described thus: Chemostability in phosphate buffer. Type of data set: physicochemical. As to conditions: free PDC; 0.01 M phosphate buffer (method pH 7.2), 37 °C, LC-MS PDC peak area, exponential decay fit, two independent experiments. The protocol:
Stock solutions were prepared by dissolving 5 mg of P4-chlorambucil, P4-melphalan or P4-bendamustine coated PEG-AuNPs in 1 mL of deionized water.
100 μl of stock solution were diluted to 1 ml of 0.01 M phosphate buffer solution pH 7.2 and incubated at 37 °C. At designated time points an aliquot was removed and centrifuged at 5000 rpm for 5 min. The supernatant was recovered, filtered through a […] syringe and analyzed by LCMS for the presence of free drug. Results for each time point were expressed as mean % PDC integrity ± standard error, calculated from two independent experiments.
as §1

Broadly, the IC50 is the concentration that gives 50% inhibition. As for `O=C(O)CCCc1ccc(N(CCCl)CCCl)cc1` [Chlorambucil], in the data set on A20 cells, the “maximal %GI (growth inhibition)” value was 89.4% and half-maximal inhibition (IC50) required 15.8 µM.
In the same order, the values of `N[C@@H](Cc1ccc(N(CCCl)CCCl)cc1)C(=O)O` [Melphalan] are 94.9% and 9.6 µM.
`C[C@@H](O)[C@H](NC(=O)[C@H](CO)NC(=O)[C@H](Cc1c[nH]cn1)NC(=O)CCCc1nc2cc(N(CCCl)CCCl)ccc2n1C)C(=O)N1CCC[C@H]1C(=O)N[C@@H](CO)C(=O)N[C@@H](CO)C(=O)N1CCC[C@H]1C(=O)O` [P4-Bendamustine] (X1-HSTPSSP-OH): in data set [1], the half-life worked out at 15.4 min. In addition, the “Chemostability (pH 7.4) t½” value in data set [2] is on record as 19.3 mins.
For `C[C@@H](O)[C@H](NC(=O)[C@H](CO)NC(=O)[C@H](Cc1c[nH]cn1)NC(=O)CCCc1ccc(N(CCCl)CCCl)cc1)C(=O)N1CCC[C@H]1C(=O)N[C@@H](CO)C(=O)N[C@@H](CO)C(=O)N1CCC[C@H]1C(=O)O` [P4-Chlorambucil] (Chlorambucil-HSTPSSP-OH), in that order: 12.4 min and 21.5 mins.
In the same order, the values of `C[C@@H](O)[C@H](NC(=O)[C@H](CO)NC(=O)[C@H](Cc1c[nH]cn1)NC(=O)[C@@H](N)Cc1ccc(N(CCCl)CCCl)cc1)C(=O)N1CCC[C@H]1C(=O)N[C@@H](CO)C(=O)N[C@@H](CO)C(=O)N1CCC[C@H]1C(=O)O` [P4-Melphalan] (H-[Phe(4-N(CH2CH2Cl)2)]HSTPSSP-OH) are 10.6 min and 24.6 mins.
On to `Cn1c(CCCC(=O)O)nc2cc(N(CCCl)CCCl)ccc21` [bendamustine], for which, in the data set on A20 cells, the “maximal %GI (growth inhibition)” value was 43.1% and the IC50 was greater than 50 µM.

The values are drawn from publication PMC5877385, “Gold nanoparticles stabilize peptide-drug-conjugates for sustained targeted drug delivery to cancer cells” (Journal of Nanobiotechnology, 2018).
